In ChEMBL document CHEMBL4616662, “Cyperane-Type and Related (Nor)Sesquiterpenoids from the Root Bark of Acanthopanax gracilistylus and Their Inhibitory Effects on Nitric Oxide Production” (J Nat Prod, 2020):

Tests used:
RAW264.7 [1] = assay: Antiinflammatory activity in mouse RAW264.7 cells assessed as inhibition of LPS-induced nitirc oxide production pretreated followed by LPS challenge and measured after 24 hrs by Griess assay; format: functional, cell-based
RAW264.7 [2] = assay: Cytotoxicity against LPS-stimulated mouse RAW264.7 cells at 6.25 to 100 uM by MTT assay; format: cell-based; settings: raw264.7, 100 µM

IC50 (RAW264.7 [1]) | SMILES | Activity (RAW264.7 [2])
6.8 µM | CC(=O)[C@]12C=C([C@@](C)(O)CO)CC[C@@]1(C)CC[C@H]2O | Non-Toxic
7.7 µM | CC(=O)[C@@]12C=C([C@](C)(O)CO)CC[C@]1(C)CC[C@@H]2O | Non-Toxic
2.6 µM | CC(=O)[C@@H]1CC[C@@]2(C)CCC(=O)O[C@@]2(C(C)=O)C1 | Non-Toxic

SMILES | IC50 (RAW264.7 [1]) | Activity (RAW264.7 [2])
COC(=O)[C@@H](N)CCCNC(=N)N[N+](=O)[O-] [L-NAME] | 58.4 µM | –
